ChEMBL document CHEMBL1811808, “A mechanism-based potent sirtuin inhibitor containing Nε-thiocarbamoyl-lysine (TuAcK)” (Bioorg Med Chem Lett, 2011)
Activity calls are given as the source filed them. No cut-off for these calls is given here. Square brackets hold non-standard residues; d marks the D form. Peptide text beside a SMILES is read from it. Asu = N[C@@H](CCCCCC(=O)O)C(=O)O

Assays:
[1] = target: T1, NAD-dependent protein deacetylase sirtuin-1 (Homo sapiens, UniProt Q96EB6); assay: Inhibition of human GST-tagged SIRT1 using H2NHK-AcK-LM-COOH as substrate assessed as enzymatic deacetylation product formation after 5 mins by HPLC analysis
T1 sequence (Q96EB6 whole entry): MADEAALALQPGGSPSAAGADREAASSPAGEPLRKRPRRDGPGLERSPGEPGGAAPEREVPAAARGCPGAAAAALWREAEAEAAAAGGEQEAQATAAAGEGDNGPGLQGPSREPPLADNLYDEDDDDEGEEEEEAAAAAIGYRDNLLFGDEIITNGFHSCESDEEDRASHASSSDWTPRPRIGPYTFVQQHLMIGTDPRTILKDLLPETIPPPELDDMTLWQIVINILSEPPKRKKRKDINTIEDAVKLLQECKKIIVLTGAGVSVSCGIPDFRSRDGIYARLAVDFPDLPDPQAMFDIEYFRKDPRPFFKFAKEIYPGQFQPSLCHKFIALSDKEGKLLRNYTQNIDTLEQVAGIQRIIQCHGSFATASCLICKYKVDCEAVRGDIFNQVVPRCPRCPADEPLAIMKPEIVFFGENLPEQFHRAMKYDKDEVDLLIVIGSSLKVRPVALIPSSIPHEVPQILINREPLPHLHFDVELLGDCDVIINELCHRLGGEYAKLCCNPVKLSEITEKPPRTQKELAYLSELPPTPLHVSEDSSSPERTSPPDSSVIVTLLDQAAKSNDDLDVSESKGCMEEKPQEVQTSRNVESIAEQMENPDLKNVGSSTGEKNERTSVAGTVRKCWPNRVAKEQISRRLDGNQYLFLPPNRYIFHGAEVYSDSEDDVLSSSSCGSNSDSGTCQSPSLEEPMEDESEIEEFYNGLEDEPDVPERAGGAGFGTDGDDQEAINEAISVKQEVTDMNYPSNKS

[2] = target: T2, NAD-dependent protein deacetylase sirtuin-1 (Homo sapiens) (UniProt Q96EB6); assay: Activity at SIRT1 assessed as formation of alkylamidate intermediate of compound at 0.6 mM after 1 min by MALDI-MS analysis in presence of NAD+
T2 sequence (whole entry): T1 sequence (Q96EB6 whole entry)

[3] = target: T2, NAD-dependent protein deacetylase sirtuin-1 (Homo sapiens); assay: Inhibition of SIRT1 in human HCT116 cells expressing wild type p53 assessed as increase in p53 acetylation at K382 after 10 hr by Western blot analysis; conditions: HCT-116
[4] = target: T3, NAD-dependent protein deacetylase sirtuin-2 (Homo sapiens, UniProt Q8IXJ6); assay: Inhibition of human full length SIRT2 using H2N-MPSD-AcK-TIGG-COOH as substrate assessed as enzymatic deacetylation product formation after 60 mins by HPLC analysis
T3 sequence (Q8IXJ6 whole entry): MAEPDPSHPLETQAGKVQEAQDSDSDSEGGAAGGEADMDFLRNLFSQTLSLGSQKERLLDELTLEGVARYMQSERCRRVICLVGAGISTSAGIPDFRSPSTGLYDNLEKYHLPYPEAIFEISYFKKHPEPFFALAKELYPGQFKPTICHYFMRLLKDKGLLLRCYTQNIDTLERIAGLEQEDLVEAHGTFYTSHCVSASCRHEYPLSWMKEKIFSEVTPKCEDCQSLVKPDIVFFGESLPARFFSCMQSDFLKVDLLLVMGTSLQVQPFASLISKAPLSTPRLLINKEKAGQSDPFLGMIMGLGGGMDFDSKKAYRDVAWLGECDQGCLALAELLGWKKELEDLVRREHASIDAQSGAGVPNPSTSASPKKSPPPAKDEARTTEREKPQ

IC50 [1] | Activity [2] | inhibition [3] | IC50 [4] | Structure (SMILES)
89.5 µM | Active | Dose-dependent effect |  | CC(=O)NCCC[C@H](NC(=O)[C@H](CCCCNC(N)=S)NC(=O)[C@H](CCCNC(C)=O)NC(C)=O)C(N)=O
290 µM |  |  | 190 µM | CC(=O)NCCCC[C@H](NC(=O)[C@H](CCCCCC(N)=O)NC(=O)[C@H](CCCCNC(C)=O)NC(C)=O)C(N)=O (Ac-Lys(Ac)-[Asu](NH2)-Lys(Ac)-NH2)
